According to patent US6677316B2, “Adenosine derivatives and methods of administration” (SmithKline Beecham Corporation, priority 1998, dated 2004):

Tests used:
[1] = target: T1, human adenosine A1 receptor (Homo sapiens, UniProt P30542); experiment: Reporter gene assay (CRE/SPAP) in CHO cells, agonist potency relative to NECA, adenosine A1 receptor; assay type: cell-based; parameters: key: equipotent concentration ratio, NECA = 1; details: ECR = equipotent concentration ratio relative to NECA = 1, inhibition of forskolin-stimulated SPAP production
T1 construct: expressed in transfected cells; host or cells: Chinese hamster ovary (CHO) cells with CRE/SPAP/HYG reporter elements
T1 sequence (P30542 1-326): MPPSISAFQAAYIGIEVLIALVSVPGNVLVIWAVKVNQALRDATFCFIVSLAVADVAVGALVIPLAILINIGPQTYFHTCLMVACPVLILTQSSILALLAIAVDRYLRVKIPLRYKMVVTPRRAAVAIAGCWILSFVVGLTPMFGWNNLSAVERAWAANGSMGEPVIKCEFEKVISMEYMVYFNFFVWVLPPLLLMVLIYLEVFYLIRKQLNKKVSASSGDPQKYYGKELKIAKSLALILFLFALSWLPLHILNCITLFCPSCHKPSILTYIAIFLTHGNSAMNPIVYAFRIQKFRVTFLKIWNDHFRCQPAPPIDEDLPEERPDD
Description: (§1) Reporter Gene Experiments
(§2) Agonist activity was measured in Chinese hamster ovary (CHO) cells containing the CRE/SPAP/HYG (CRE=cyclic AMP response element; HYG=hygromycin resistance; SPAP=secreted placental alkaline phosphatase) reporter gene elements, which upon stimulation of cAMP levels produced SPAP. A cell line was used, which was stably transfected with either the human adenosine A1 receptor or the human adenosine A3 receptor in addition to the above elements. Cells were plated out in 96-well plates in culture medium and incubated at 37° C. for 1 hour. For measurement of potency, agonists were added to the appropriate wells at a concentration range of approximately 10^−10- 10^−5M. 15Min later, cAMP levels were stimulated by addition of a maximal concentration of forskolin. All cells were then incubated for a further 5 hours at 37° C., and cooled to room temperature, after which a substrate for the phosphatase (para-nitrophenol phosphate, pNPP), which is converted by SPAP to a coloured reagent) was then added and the 96-well -plates were read in a plate reader. From these readings, the concentration-dependence of the inhibition by the agonist for forskolin-stimulated SPAP production can be calculated. One of the agonists tested on each 96-well plate was the standard non-selective agonist, N-ethylcarboxamidoadenosine (NECA), and the potency of all test agonists is expressed relative to that of the NECA standard.
(§3) (ECR=equipotent concentration ratio relative to NECA=1)

[2] = target: T2, human adenosine A3 receptor (Homo sapiens, UniProt P0DMS8); experiment: Reporter gene assay (CRE/SPAP) in CHO cells, agonist potency relative to NECA, adenosine A3 receptor; assay type: cell-based; parameters: key: equipotent concentration ratio, NECA = 1; details: ECR = equipotent concentration ratio relative to NECA = 1, inhibition of forskolin-stimulated SPAP production
T2 construct: expressed in transfected cells; host or cells: Chinese hamster ovary (CHO) cells with CRE/SPAP/HYG reporter elements
T2 sequence (P0DMS8 1-318): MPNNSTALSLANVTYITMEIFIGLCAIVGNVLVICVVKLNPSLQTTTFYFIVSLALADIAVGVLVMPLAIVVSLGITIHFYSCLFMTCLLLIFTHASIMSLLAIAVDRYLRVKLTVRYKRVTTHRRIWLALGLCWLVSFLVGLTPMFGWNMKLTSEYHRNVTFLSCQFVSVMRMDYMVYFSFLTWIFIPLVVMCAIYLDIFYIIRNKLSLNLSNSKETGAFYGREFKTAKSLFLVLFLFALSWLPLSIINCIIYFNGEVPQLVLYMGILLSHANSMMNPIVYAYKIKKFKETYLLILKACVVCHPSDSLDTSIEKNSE
Description: as §1, §2, §3

| Structure (SMILES) | Adenosine A1 receptor ECR* [1] | Adenosine A3 receptor ECR* [2] |
| --- | --- | --- |
| CC(C)(C)c1nnc([C@H]2O[C@@H](n3cnc4c(NC5CCOCC5)ncnc43)[C@H](O)[C@@H]2O)o1 [Example 3, (2S,3S,4R,5R)-2-(5-tert-Butyl-[1,3,4]oxadiazol-2-yl)-5-[6-(tetrahydro-pyran-4-ylamino)-purin-9-yl]-tetrahydro-furan-3,4-diol] | 4.16 | 152 |
| CCOC(=O)N1CCC(Nc2ncnc3c2ncn3[C@@H]2O[C@H](c3nnc(C(C)(C)C)o3)[C@@H](O)[C@H]2O)CC1 [Example 4, 4-{9-[5S-(5-tert-Butyl-[1,3,4]oxadiazol-2-yl)-3R,4S-dihydroxy-tetrahydro-furan-2R-yl]-9H-purin-6-ylamino}-piperidine-1-carboxylic acid ethyl ester] | 5.65 | 152 |
| CC(C)c1nnc([C@H]2O[C@@H](n3cnc4c(NC5CCOCC5)ncnc43)[C@H](O)[C@@H]2O)o1 [Example 6, (2S,3S,4R,5R)-2-(5-Isopropyl-[1,3,4]oxadiazol-2-yl)-5-[6-(tetrahydro-pyran-4-ylamino)-purin-9-yl]-tetrahydro-furan-3,4-diol] | 1.71 | 134 |
| CCOC(=O)N1CCC(Nc2ncnc3c2ncn3[C@@H]2O[C@H](c3nnc(C4CC4)o3)[C@@H](O)[C@H]2O)CC1 [Example 12, 4-{9-[5S-(5-Cyclopropyl-[1,3,4]oxadiazol-2-yl)-3R,4S-dihydroxy-tetrahydro-furan-2R-yl]-9H-purin-6-ylamino}-piperidine-1-carboxylic acid ethyl ester] | 2.28 | 254 |
| CC(C)(C)c1nnc([C@H]2O[C@@H](n3cnc4c(Nc5ccc(Cl)cc5F)ncnc43)[C@H](O)[C@@H]2O)o1 [Example 14, (2S,3S,4R,5R)-2-(5-tert-Butyl-[1,3,4]oxadiazol-2-yl)-5-[6-(4-chloro-2-fluoro-phenylamino)-purin-9-yl]-tetrahydro-furan-3,4-diol] | 5.8 | 1066.71 |
| CCc1cnc([C@H]2O[C@@H](n3cnc4c(NC5CCOCC5)ncnc43)[C@H](O)[C@@H]2O)o1 [Example 16, (2S,3S,4R,5R)-2-(5-Ethyl-oxazol-2-yl)-5-[6-(tetrahydro-pyran-4-ylamino)-purin-9-yl]-tetrahydro-furan-3,4-diol] | 9.6 | 201 |
| O[C@@H]1[C@H](O)[C@@H](c2nc(C3CC3)no2)O[C@H]1n1cnc2c(N[C@H]3CCC[C@@H]3O)ncnc21 [Example 19, (2S,3S,4R,5R)-2-(3-Cyclopropyl-[1,2,4]oxadiazol-5-yl)-5-[6-(2S-hydroxy-cyclopent-(S)-ylamino)-purin-9-yl]-tetrahydro-furan-3,4-diol] | 5.15 | 172 |
| CC(C)(C)c1noc([C@H]2O[C@@H](n3cnc4c(N[C@H]5CCC[C@@H]5O)ncnc43)[C@H](O)[C@@H]2O)n1 [Example 21, (2S,3S,4R,5R)-2-(3-tert-Butyl-[1,2,4]oxadiazol-5-yl)-5-[6-(2S-hydroxy-cyclopent-(S)-ylamino)-purin-9-yl]-tetrahydro-furan-3,4-diol] | 23.26 | 321 |
| O[C@@H]1[C@H](O)[C@@H](c2nc(C3CC3)no2)O[C@H]1n1cnc2c(NC3CCOCC3)ncnc21 [Example 22, (2S,3S,4 R,5R)-2-(3-Cyclopropyl-[1,2,4]oxadiazol-5-yl)-5-[6-(tetrahydro-pyran4-ylamino)-purin-9-yl]-tetrahydro-furan-3,4-diol] | 8.75 | 423 |
| CC(C)(C)c1cc([C@H]2O[C@@H](n3cnc4c(NC5CCOCC5)ncnc43)[C@H](O)[C@@H]2O)on1 [Example 28, (2S,3S,4R,5R)-2-(3-tert-Butyl-isoxazol-5-yl)-5-[6-(tetrahydro-pyran-4-ylamino)-purin-9-yl]-tetrahydro-furan-3,4-diol] | 0.42 | 44.7 |
| CCOC(=O)N1CCC(Nc2ncnc3c2ncn3[C@@H]2O[C@H](c3nc(C)no3)[C@@H](O)[C@H]2O)CC1 [Example 37, ethyl 4-({9-[(2R,3R,4S,5S)-3,4-dihydroxy-5-(3-methyl-1,2,4-oxadiazol-5-yl)tetrahydrofuran-2-yl]-9H-purin-6-yl}amino)piperidine-1-carboxylate] | 4.19 | 507 |
| Cc1cccc(NS(=O)(=O)CCNc2ncnc3c2ncn3[C@@H]2O[C@H](c3nnc(C(C)(C)C)o3)[C@@H](O)[C@H]2O)c1 [Example 126, 2-[(9-{(2R,3R,4S,5S)-5-[5-(tert-butyl)-1,3,4-oxadiazol-2-yl]-3,4-dihydroxytetrahydrofuran-2-yl}-9H-purin-6-yl)amino]-N-(3-methylphenyl)ethanesulfonamide] | 13.9 | – |
| CCc1cc([C@H]2O[C@@H](n3cnc4c(NC5CCOCC5)ncnc43)[C@H](O)[C@@H]2O)on1 [Example 135, (2S,3S,4R,5R)-2-(3-ethylisoxazol-5-yl)-5-[6-(tetrahydro-2H-pyran-4-ylamino)-9H-purin-9-yl]tetrahydrofuran-3,4-diol] | 0.48 | – |
| CCc1cc([C@H]2O[C@@H](n3cnc4c(N[C@H]5CCC[C@@H]5O)ncnc43)[C@H](O)[C@@H]2O)on1 [Example 136, (2S,3S,4R,5R)-2-(3-ethylisoxazol-5-yl)-5-(6-{[(1S,2S)-2-hydroxycyclopentyl]amino}-9H-purin-9-yl)tetrahydrofuran-3,4-diol] | 1.95 | – |
| CCOC(=O)N1CCC(Nc2ncnc3c2ncn3[C@@H]2O[C@H](c3cc(CC)no3)[C@@H](O)[C@H]2O)CC1 [Example 138, ethyl 4-({9-[(2R,3R,4S,5S)-5-(3-ethylisoxazol-5-yl)-3,4-dihydroxytetrahydrofuran-2-yl]-9H-purin-6-yl}amino)piperidine-1-carboxylate] | 1.31 | – |
| Cc1cc([C@H]2O[C@@H](n3cnc4c(Nc5ccc(Cl)cc5F)ncnc43)[C@H](O)[C@@H]2O)on1 [Example 144, (2R,3R,4S,5S)-2-[6-(4-chloro-2-fluoroanilino)-9H-purin-9-yl]-5-(3-methylisoxazol-5-yl)tetrahydrofuran-3,4-diol] | 2.8 | – |
| CCCc1cc([C@H]2O[C@@H](n3cnc4c(Nc5ccc(Cl)cc5F)ncnc43)[C@H](O)[C@@H]2O)on1 [Example 145, (2R,3R,4S,5S)-2-[6-(4-chloro-2-fluoroanilino)-9H-purin-9-yl]-5-(3-propylisoxazol-5-yl)tetrahydrofuran-3,4-diol] | 24.9 | – |
| O[C@@H]1[C@H](O)[C@@H](c2cc(Br)no2)O[C@H]1n1cnc2c(Nc3ccc(Cl)cc3F)ncnc21 [Example 164, (2S,3S,4R,5R)-2-(3-bromoisoxazol-5-yl)-5-[6-(4-chloro-2-fluoroanilino)-9H-purin-9-yl]tetrahydrofuran-3,4-diol] | 4.3 | – |
| O[C@@H]1[C@H](O)[C@@H](c2nnc(C(F)(F)F)o2)O[C@H]1n1cnc2c(N[C@H]3CCC[C@@H]3O)ncnc21 [Example 179, (2R,3R,4S,5S)-2-(6-{[(1S,2S)-2-hydroxy-cyclopentyl]-amino}-9H-purin-9-yl)-5-[5-(trifluoromethyl)-1,3,4-oxadiazol-2-yl]-tetrahydrofuran-3,4-diol] | 12.6 | – |
| Cc1nnc([C@H]2O[C@@H](n3cnc4c(Nc5ccc(Cl)cc5F)ncnc43)[C@H](O)[C@@H]2O)o1 [Example 181] | 8.57 | – |
| O[C@@H]1[C@H](O)[C@@H](c2cc(C3CC3)no2)O[C@H]1n1cnc2c(Nc3ccc(Cl)cc3F)ncnc21 [Example 182, (2R,3R,4S,5S)-2-[6-(4-chloro-2-fluoroanilino)-9H-purin-9-yl]-5-(3-cyclopropyl-isoxazol-5-yl)-tetrahydrofuran-3,4-diol] | 3.48 | – |
